According to article PMC7866984, “Molecular Structure, In Vitro Anticancer Study and Molecular Docking of New Phosphate Derivatives of Betulin” (Molecules, 2021):
Like-named read-outs stand apart in the source and are kept apart here.

What was measured:
[1] = test system: amelanotic melanoma (C-32) cells; test: WST-1 cell viability assay, C-32; format: cell-based, human; settings: WST-1, 72 h, read-out: IC50 ± SD, C-32
Protocol: (§1) Evaluation of the effect of new betulin derivatives on the viability of the cultured cells was performed using the WST-1(water soluble tetrazolium salt) assay. Betulin 1 and cisplatin were used as the reference compounds.
(§2) The synthesized compounds and references were tested for cytotoxic activity in vitro against human cancer cell lines such as amelanotic melanoma (C-32, ATCC, Rockville, MD, USA), glioblastoma (SNB-19, DSMZ, Braunschweig, Germany), and breast cancer (T47D, and MDA-MB-231, ATCC, Rockville, MD, USA). Cell cultures were maintained using DMEM (Lonza, Basel, Switzerland) supplemented with 10% fetal bovine serum (FBS) (Biological Industries Cromwell, CT, USA) and penicillin (10,000 U/mL) –streptomycin (10 mg/mL) mix (Lonza, Basel, Switzerland).
(§3) Cultures were performed in 96-well plates (Nunc Thermo Fisher Scientific, Waltham, MA, USA). Cells were seeded at 5 × 10^4/well and incubated for 24 h (at 37 °C, 5% CO2, constant humidity). Then, the medium was replaced with a fresh one with the addition of test compounds in the concentration: 25; 12.5; 6.25; 3.12; 1.56; 0.78; 0.39; 0 µg/mL and incubated again for a further 72 h. After this time, the WST-1 test (Roche Molecular Biochemicals, Mannheim, Germany) was performed to assess the metabolic activity of the cells. The principle of the WST-1 colorimetric test is based on the ability of live cells to decompose bright red tetrazole salts of WST-1 to dark red formazan. The reaction is mediated by mitochondrial dehydrogenases and correlates with the number of cells and their metabolic activity. The absorbance was measured at λ = 450 nm with a UVM340 microplate reader (Biogenet, Józefów, Poland). Results were expressed as a mean value of at least three independent experiments performed in triplicate.

[2] = test system: glioblastoma (SNB-19) cells; test: WST-1 cell viability assay, SNB-19; format: cell-based, human; settings: WST-1, 72 h, read-out: IC50 ± SD, SNB-19
Protocol: as §1, §2, §3

breast cancer T47D cells [3] = test: WST-1 cell viability assay, T47D; format: cell-based, human; settings: Homo sapiens, T47D, 72 h, read-out: IC50 ± SD, T47D
Protocol: as §1, §2, §3

[4] = test system: breast cancer MDA-MB-231 cells; test: WST-1 cell viability assay, MDA-MB-231; format: cell-based, human; settings: Homo sapiens, MDA-MB-231, 72 h, read-out: IC50 ± SD, MDA-MB-231
Protocol: as §1, §2, §3

[5] = test system: histone H3 mRNA in SNB-19 and C-32 cells; test: qRT-PCR expression of H3; format: cell-based, human; settings: 24 h, half of IC50
Protocol: (§4) In our work, we assessed the influence of the tested compounds on the expression of selected genes related to apoptosis. […] We examined their influence on the transcriptional activity of genes encoding a proliferation marker (histone H3), a cell cycle regulator (p53), and proteins related to the mitochondrial apoptosis pathway (BCL-2 and BAX). The study was performed after 24-h exposure of the cultured cells to the test compounds (half of IC50).
(§5) The influence of tested compounds on the transcriptional activity of cells of the genes H3, TP53, BCL-2, and BAX was investigated. Assays were performed by real-time qRT-PCR on an Opticon TM DNA Engine (MJ Research, USA) using the QuantTect® SYBR® Green qRT-PCR Kit (Qiagen, Valencia, […]). Cells were exposed to compound 7a and 7b for 24 h at a concentration equal to half of IC50 for appropriate cell line. For the reference compound, cisplatin, concentrations were 0.8 µg/mL (SNB-19 line) and 0.6 µg/mL (C-32 line). RNA extraction was performed on spin columns using the Quick RNATM MiniPrep kit (Zymo Research, Irvine, CA, USA). RNA extracts were assessed qualitatively and quantitatively. Total RNA integrity was checked electrophoretically on a 1.2% agarose gel with ethidium bromide. The amount and purity of total RNA in the extracts were determined spectrophotometrically with the HP8452A spectrophotometer (Hewlett Packard, Waldbronn, Germany).

[6] = test system: TP53 mRNA in SNB-19 and C-32 cells; test: qRT-PCR expression of TP53; format: cell-based, human; settings: 24 h, half of IC50
Protocol: as §4, §5

[7] = test system: BAX/BCL-2 mRNA in SNB-19 and C-32 cells; test: qRT-PCR BAX/BCL-2 ratio; format: cell-based, human; settings: 24 h, half of IC50
Protocol: as §4, §5

[8] = RP-TLC experimental lipophilicity; format: physicochemical; settings: for RM0 / logPTLC: RP-TLC; for RM0: acetone/Tris buffer pH 7.4, extrapolated to zero acetone; for logPTLC: from RM0 by calibration equation; for -b: slope of regression plot RM = RM0 + bC
Excerpt: Lipophilicity is an important physicochemical parameter related to the biological activity of compounds. This descriptor, contained in Lipiński’s rule of five, concerns the transport of a compound through the biological membrane system and the formation of a compound–receptor complex. To assess the lipophilic nature of triterpenoids 3–5, 6a–6e, and 7a–7e, the reverse phase chromatography (RP-TLC) method was used (chromatographic procedure by RP-TLC is included in the Supplementary Materials). The theoretical characteristics of the chromatographic parameters (RM0, log PTLC) of the tested derivatives were also performed. […]
Chromatographic procedure by RP-TLC
The experimental lipophilicity parameters was determined using reversed-phase thin-layer chromatography (RP-TLC). The stationary phase was an aluminium backed silica gel RP-18 F254 S plates (Merck, Darmstadt, Germany). Chloroform solutions of reference compounds […]
(acetanilide, 4-bromoacetophenone, benzophenone, anthracene, DDT) and triterpenes 3-5, 6a-6e and 7a-7e were spotted on to the plates in the amount of 2 µL. The chromatograms were performed in triplicate for each compound. The chromatographic chambers were filled of mobile phases consisting of a mixture of acetone (POCh, Gliwice, Poland) and aqueous solution of buffer Tris [(tris-hydroxymethyl)aminomethane] (Fluka, Loughborough, 0.2 M, pH 7.4). The percent acetone volume was varied within the range of 90-60%, in 5% increments. The spots of compounds were visualized by spraying the plates with 10% ethanolic solution of sulphuric acid (VI) and heating for 3 min at 110°C [60]]. The RM values were calculated by the equation RM = log (1/Rf-1) on the basis of average Rf values. The RM0 parameters were obtained by extrapolating on the acetone content to zero, according to the equation RM = RM0 + bC (C – the percentage concentration of acetone in the mobile phase, b – the slope of the regression plot).
The experimental lipophilicity as log PTLC for triterpenes 3-5, 6a-6e and 7a-7e was calculated […]
obtained on the correlation between the literature log Plit values and the experimental RM0 values […]
Table S5. The theoretical values of lipophilicity for tested compounds 3-5, 6a-6e and 7a- […]
Table S6. The correlation matrix for theoretically obtained lipophilicity parameters of compounds 3-5, 6a-6e and 7a-7e. […]

[9] = test system: amelanotic melanoma (C-32) cells; settings: cited from earlier work
[10] = test system: glioblastoma (SNB-19) cells; settings: cited from earlier work
breast cancer T47D cells [11] = settings: cited from earlier work

Structure (SMILES) | IC50 ([1]; Homo sapiens, C32, 72 h) | IC50 ([2]; Homo sapiens, SNB-19, 72 h) | IC50 (breast cancer T47D cells [3]) | IC50 [4] | number of mRNA copies of histone H3 gene vs control [5] | number of mRNA copies of TP53 [6] | mRNA copy number BAX to BCL-2 ratio [7] | RM0 [8] | logPTLC [8] | -b [8] | melting point | IC50 [1] | IC50 [2] | IC50 [9] | IC50 [10] | IC50 (breast cancer T47D cells [11])
C#CC(=O)OC[C@]12CC[C@@H](C(=C)COP(=O)(OCC)OCC)C1C1CCC3[C@@]4(C)CC[C@H](O)C(C)(C)C4CC[C@@]3(C)[C@]1(C)CC2 (some centres unmarked) [Compound 7a, 30-Diethoxyphosphoryloxy-28-propynoylbetulin] | 2.15 ± 0.22 µM | 0.91 ± 0.09 µM | 2.61 ± 0.42 µM | 6.2 ± 0.22 µM | reduced the number of mRNA copies of the histone H3 gene | increase the number of mRNA copies of TP53 | increased the mRNA copy number to BAX and BCL-2 ratio | 5.318 | 6.937 | 0.062 | 177 to 180 °C | – | – | – | – | –
C=C(COP(=O)(OCC)OCC)[C@@H]1CC[C@]2(COC(=O)C#CC)CC[C@]3(C)C(CCC4[C@@]5(C)CC[C@H](O)C(C)(C)C5CC[C@]43C)C12 (some centres unmarked) [Compound 7b, 28-(2-Butynoyl)-30-diethoxyphosphoryloxybetulin] | 0.76 µM | 0.8 µM | 15.4 ± 0.51 µM | 4.93 ± 0.44 µM | reduced the number of mRNA copies of the histone H3 gene | increase the number of mRNA copies of TP53 | increased the mRNA copy number to BAX and BCL-2 ratio | 5.431 | – | 0.063 | 133 to 136 °C | 0.8 ± 0.03 µM | 0.76 ± 0.14 µM | – | – | –
C#CC(=O)OC[C@]12CC[C@@H](C(=C)C)[C@@H]1[C@H]1CC[C@@H]3[C@@]4(C)CC[C@H](O)C(C)(C)[C@@H]4CC[C@@]3(C)[C@]1(C)CC2 [28-O-propynoylbetulin] | – | – | – | – | – | – | – | – | – | – | – | – | – | 16.7 µM | 4.2 µM | 111 µM
C=C(COP(=O)(OCC)OCC)C1CCC2(CO)CCC3(C)C(CCC4C5(C)CCC(O)C(C)(C)C5CCC43C)C12 (centres unmarked) [Compound 5, 30-Diethoxyphosphoryloxybetulin] | 43.5 ± 2.5 µM | 10.9 ± 1.33 µM | 1.04 ± 0.14 µM | 0.4 ± 0.02 µM | – | – | – | 3.719 | 4.914 | 0.046 | 194 to 195 °C | – | – | – | – | –
C=C(COP(=O)(OCC)OCC)[C@@H]1CC[C@]2(COC(=O)C#CC3CC3)CC[C@]3(C)C(CCC4[C@@]5(C)CC[C@H](OC(=O)C#CC6CC6)C(C)(C)C5CC[C@]43C)C12 (some centres unmarked) [Compound 6c, 3,28-Di(2-cyclopropylpropynoyl)-30-diethoxyphosphoryloxybetulin] | > 50 µM | > 50 µM | > 50 µM | > 50 µM | – | – | – | 6.419 | 8.330 | 0.071 | 67 to 70 °C | – | – | – | – | –
C=C(COP(=O)(OCC)OCC)[C@@H]1CC[C@]2(COC(=O)C#CC)CC[C@]3(C)C(CCC4[C@@]5(C)CC[C@H](OC(=O)C#CC)C(C)(C)C5CC[C@]43C)C12 (some centres unmarked) [Compound 6b, 3,28-Di(2-butynoyl)-30-diethoxyphosphoryloxybetulin] | > 50 µM | 4.65 ± 0.51 µM | > 50 µM | 21.2 ± 1.24 µM | – | – | – | 6.884 | 8.917 | 0.078 | 66 to 70 °C | – | – | – | – | –
